Measured values as given in US20250206738A1, “WRN INHIBITORS” (Nimbus Wadjet, Inc., priority 2023, published 2025).

Target: T1, human Werner helicase (WRN, Uniprot Q14191, amino acids 517-1235 with L1074F point mutation; WRN-BV08) (Homo sapiens, UniProt Q14191, L1074F)
T1 construct: Uniprot Q14191, amino acids 517-1235 with L1074F point mutation; 8xHis (C, cleaved yes); TEV cleavage site (ENLYFQG) (C, cleaved yes); made in house; host or cells: Sf9 insect cells (baculovirus, pFastBac)
Assay: WRN (BV08) ADP-Glo assay
Type: biochemical
Settings: WRN-BV08 (aa 517-1235, L1074F); read-out: ADP-Glo_hWRN_IC50
Text: Example 2: WRN (BV08) ADP-Glo Assay Protocol
Bovine skin gelatin (BSG), dimethyl sulfoxide (DMSO), Pluronic F-127 and tris(2-carboxyethyl)phosphine hydrochloride solution (TCEP) were purchased from Sigma-Aldrich (St. Louis, MO) at the highest level of purity possible. Bicine buffer solution was purchased from Alfa Aesar (Tewksbury, MA) and compound NSC-617145 was purchased from Tocris (Minneapolis, MN). DNA duplex was synthesized at BGI (Shenzhen, China) and was composed of strand 1 with the sequence 5′-[…]-3′ (SEQ ID NO.: 1) and strand 2 with the sequence 5′-[…]-3′ (SEQ ID NO.: 2). DNA strands were annealed by heating to 95° C. for 5 minutes followed by slow cooling to room temperature. Compounds in 100% DMSO ([…]) were spotted into a 384-well white polystyrene Optiplate-384 (Perkin Elmer; Waltham, MA) assay plate using a LabCyte Echo 550 (Agilent; Santa Clara, CA). DMSO ([…]) was added to columns 12, rows A-H and column 24, rows I-P for the maximum signal control. Compound NSC-617145 ([…]) was added to columns 12, rows I-P and 24, rows A-H for the minimum signal control (100% inhibition). Compounds/DMSO were preincubated for 15 minutes at 25° C. with […] 2×WRN (BV08), prepared as described below, in assay buffer containing 20 mM Bicine (pH=7.5), 1 mM MgCl2, 10 mM KCl, 0.1% Pluronic F-127, 0.005% BSG, 1 mM TCEP. The reaction was initiated by the addition of […] 2× substrate mixture in assay buffer and incubated for 60 minutes at 25° C. The final concentrations of the assay components were 0.15 nM WRN, […], and 0.1 nM DNA duplex. The final DMSO concentration was 1% and the reference compound concentration (NSC-617145) used for the minimal signal control was […]. The reaction was stopped by the addition of the ADP-Glo Kit components (Promega; Madison, WI) as directed and the relative luminescence units (RLU) were read on an Envision 2104 (Perkin Elmer; Waltham, MA).
% Inhibition Calculation:
Where RLU=relative luminescence units, sample=signal in sample well, and MIN and MAX are the respective minimum and maximum signal controls.
Four-Parameter IC50 Fit Equation:
Where top and bottom are normally allowed to float but may be fixed at 100 or 0 respectively in a 3-parameter fit. Y is the % inhibition and X is the compound concentration.
Molecular Biology and virus production. The DNA encoding human Werner helicase (Uniprot Q14191, amino acids 517-1235 with L1074F point mutation) was generated with codon-optimization for […] expression and subcloned into the pFastBac vector with a TEV cleavable 8×His tag (SEQ ID NO: 5) (WRN—BV08). The baculovirus from the expression plasmid WRN—BV08 was generated from transfection and amplification following the manufacturer's instructions.
Sf9 cells grown in SF900II media were infected with 1:200 WRN—BV08 P2 virus and incubated for protein expression for 72 h at 27° C. The WRN protein was purified using the following protocol. The cell pellets were thawed and resuspended in buffer A (50 mM Tris, pH 7.5, 500 mM NaCl, 1 mM TCEP, 10% Glycerol) supplemented with 0.5% CHAPS, 1 mM PMSF, 1 μg/ml Leupeptin, 1 μg/ml Pepstatin, and the Pierce Universal Nuclease and cocktail tablet. Cleared lysates were loaded onto a Ni Sepharose™ excel column and washed with buffer A and bound protein was eluted with buffer A supplemented with 300 mM imidazole. The eluted protein was dialyzed against buffer A and digested by His-tagged TEV (1:5 ratio) overnight at 4° C. ZnCl2 was added into the sample at final 15 μM before loading onto a second Ni Sepharose™ excel column. Untagged WRN protein was eluted from the column with buffer A supplemented with 20 mM imidazole, dialyzed overnight into buffer B (50 mM Tris, pH 7.5, 1 mM TCEP, 10% Glycerol) supplemented with 150 mM NaCl and loaded onto a Heparin column. Proteins were eluted with a step gradient of buffer B supplemented with 150 mM, 200 mM, 300 mM and 500 mM NaCl. […]

T1 sequence (Q14191 with tags, fused parts or gaps L1074F): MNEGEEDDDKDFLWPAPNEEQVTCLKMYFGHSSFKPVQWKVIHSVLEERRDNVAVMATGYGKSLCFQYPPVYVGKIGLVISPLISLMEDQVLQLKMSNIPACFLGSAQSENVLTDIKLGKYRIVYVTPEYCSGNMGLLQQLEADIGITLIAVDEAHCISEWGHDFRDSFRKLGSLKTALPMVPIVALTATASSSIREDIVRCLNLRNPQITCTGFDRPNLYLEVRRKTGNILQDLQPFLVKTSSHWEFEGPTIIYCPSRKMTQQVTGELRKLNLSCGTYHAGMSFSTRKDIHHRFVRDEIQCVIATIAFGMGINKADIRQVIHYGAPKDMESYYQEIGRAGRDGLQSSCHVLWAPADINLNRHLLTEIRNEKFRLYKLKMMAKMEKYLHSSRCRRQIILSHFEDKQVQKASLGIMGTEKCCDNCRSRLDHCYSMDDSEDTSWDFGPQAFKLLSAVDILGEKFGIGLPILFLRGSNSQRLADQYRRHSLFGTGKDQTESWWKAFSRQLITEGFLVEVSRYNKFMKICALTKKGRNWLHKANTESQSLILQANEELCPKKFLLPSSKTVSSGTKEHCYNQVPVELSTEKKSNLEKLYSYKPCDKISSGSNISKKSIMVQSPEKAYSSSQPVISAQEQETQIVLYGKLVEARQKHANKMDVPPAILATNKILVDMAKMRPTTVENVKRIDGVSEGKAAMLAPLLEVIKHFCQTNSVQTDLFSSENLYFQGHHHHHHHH

Compound | IC50
CCc1c(N2CCN(C(=O)c3c(OC)ccc4ncoc34)[C@H]3CC[C@@H]32)c(=O)c2nn(C3=CCOCC3)nc2n1CC(=O)NC12CC(C3CC3)(C1)C2 [I-180, N-{3-cyclopropylbicyclo[1.1.1]pentan-1-yl}-2-[2-(3,6-dihydro-2H-pyran-4-yl)-5-ethyl-6-[(1S,6S)-5-(6-methoxy-1,3-benzoxazole-7-carbonyl)-2,5-diazabicyclo[4.2.0]octan-2-yl]-7-oxo-2H,4H,7H-[1,2,3]triazolo[4,5-b]pyridin-4-yl]acetamide] | 0.005 to 0.05 µM
CCc1c(N2CCN(C(=O)c3c(OC)ncc(C)c3O)CC2)c(=O)c2nn(-c3ccnc(OC)c3)nc2n1CC(=O)NC12CC(N3CCCC3)(C1)C2 [I-126, 2-{5-ethyl-6-[4-(4-hydroxy-2-methoxy-5-methylpyridine-3-carbonyl)piperazin-1-yl]-2-(2-methoxypyridin-4-yl)-7-oxo-2H,4H,7H-[1,2,3]triazolo[4,5-b]pyridin-4-yl}-N-[3-(pyrrolidin-1-yl)bicyclo[1.1.1]pentan-1-yl]acetamide] | > 0.5 µM
CCc1c(N2CCN(C(=O)c3ncc4c(c3O)CCO4)CC2)c(=O)n2nc(C3=CCOCC3)nc2n1CC(=O)NC12CC(OC)(C1)C2 [I-12, 2-(2-(3,6-dihydro-2H-pyran-4-yl)-5-ethyl-6-(4-(4-hydroxy-2,3-dihydrofuro[2,3-c]pyridine-5-carbonyl)piperazin-1-yl)-7-oxo-[1,2,4]triazolo[1,5-a]pyrimidin-4(7H)-yl)-N-(3-methoxybicyclo[1.1.1]pentan-1-yl)acetamide] | > 0.5 µM
CCc1c(N2CCN(C(=O)c3ncnc(C)c3O)[C@H]3CC[C@@H]32)c(=O)c2nn(-c3ccnc(OC)c3)cc2n1CC(=O)NC12CC(C3CC3)(C1)C2 [I-177, N-{3-cyclopropylbicyclo[1.1.1]pentan-1-yl}-2-{5-ethyl-6-[(1S,6S)-5-(5-hydroxy-6-methylpyrimidine-4-carbonyl)-2,5-diazabicyclo[4.2.0]octan-2-yl]-2-(2-methoxypyridin-4-yl)-7-oxo-2H,4H,7H-pyrazolo[4,3-b]pyridin-4-yl}acetamide] | 0.005 to 0.05 µM
CCc1c(N2CCN(C(=O)c3ncnc(C)c3O)[C@H]3CC[C@@H]32)c(=O)c2nn(C3=CCC(OC)CC3)nc2n1CC(=O)NC12CC(C3CC3)(C1)C2 (stereo partly drawn) [I-163, N-{3-cyclopropylbicyclo[1.1.1]pentan-1-yl}-2-{5-ethyl-6-[(1S,6S)-5-(5-hydroxy-6-methylpyrimidine-4-carbonyl)-2,5-diazabicyclo[4.2.0]octan-2-yl]-2-(4-methoxycyclohex-1-en-1-yl)-7-oxo-2H,4H,7H-[1,2,3]triazolo[4,5-b]pyridin-4-yl}acetamide] | 0.005 to 0.05 µM
CCc1c(N2CCN(C(=O)c3ncc4c(c3O)CCO4)CC2)c(=O)n2nc(C3=CCOCC3)nc2n1CC(=O)NC12CC(C(F)F)(C1)C2 [I-8, N-(3-(difluoromethyl)bicyclo[1.1.1]pentan-1-yl)-2-(2-(3,6-dihydro-2H-pyran-4-yl)-5-ethyl-6-(4-(4-hydroxy-2,3-dihydrofuro[2,3-c]pyridine-5-carbonyl)piperazin-1-yl)-7-oxo-[1,2,4]triazolo[1,5-a]pyrimidin-4(7H)-yl)acetamide] | 0.1 to 0.5 µM
CCc1c(N2CCN(C(=O)c3ncnc(C)c3O)[C@H]3CC[C@@H]32)c(=O)c2nn(-c3ccnc(C(F)(F)F)c3)nc2n1CC(=O)NC12CC(C3CC3)(C1)C2 [I-165, N-{3-cyclopropylbicyclo[1.1.1]pentan-1-yl}-2-{5-ethyl-6-[(1S,6S)-5-(5-hydroxy-6-methylpyrimidine-4-carbonyl)-2,5-diazabicyclo[4.2.0]octan-2-yl]-7-oxo-2-[2-(trifluoromethyl)pyridin-4-yl]-2H,4H,7H-[1,2,3]triazolo[4,5-b]pyridin-4-yl}acetamide] | 0.005 to 0.05 µM
CCc1c(N2CCN(C(=O)c3c(F)cnc(OC)c3O)[C@H]3CC[C@@H]32)c(=O)c2nn(C3=CCOCC3)nc2n1CC(=O)NC12CC(C3CC3)(C1)C2 [I-172, N-{3-cyclopropylbicyclo[1.1.1]pentan-1-yl}-2-[2-(3,6-dihydro-2H-pyran-4-yl)-5-ethyl-6-[(1S,6S)-5-(5-fluoro-3-hydroxy-2-methoxypyridine-4-carbonyl)-2,5-diazabicyclo[4.2.0]octan-2-yl]-7-oxo-2H,4H,7H-[1,2,3]triazolo[4,5-b]pyridin-4-yl]acetamide] | 0.005 to 0.05 µM
CCc1c(N2CCN(C(=O)c3ncnc(C)c3O)[C@H]3CC[C@@H]32)c(=O)c2nn(-c3ccnc(OC)c3)nc2n1CC(=O)NC12CC(C3CCC3)(C1)C2 [I-80, N-{3-cyclobutylbicyclo[1.1.1]pentan-1-yl}-2-{5-ethyl-6-[(1S,6S)-5-(5-hydroxy-6-methylpyrimidine-4-carbonyl)-2,5-diazabicyclo[4.2.0]octan-2-yl]-2-(2-methoxypyridin-4-yl)-7-oxo-2H,4H,7H-[1,2,3]triazolo[4,5-b]pyridin-4-yl}acetamide] | ≤ 0.005 µM
CCc1c(N2CCN(C(=O)c3c(O)c(F)cc4ncoc34)[C@H]3CC[C@@H]32)c(=O)c2nn(C3=CCOCC3)nc2n1CC(=O)NC12CC(C3CC3)(C1)C2 [I-182, N-{3-cyclopropylbicyclo[1.1.1]pentan-1-yl}-2-[2-(3,6-dihydro-2H-pyran-4-yl)-5-ethyl-6-[(1S,6S)-5-(5-fluoro-6-hydroxy-1,3-benzoxazole-7-carbonyl)-2,5-diazabicyclo[4.2.0]octan-2-yl]-7-oxo-2H,4H,7H-[1,2,3]triazolo[4,5-b]pyridin-4-yl]acetamide] | 0.005 to 0.05 µM
CCc1c(N2CCN(C(=O)c3ncnc(C)c3O)[C@H]3CC[C@@H]32)c(=O)c2nn(-c3ccc(OC)cc3)nc2n1CC(=O)NC12CC(C(C)C)(C1)C2 [I-145, 2-{5-ethyl-6-[(1S,6S)-5-(5-hydroxy-6-methylpyrimidine-4-carbonyl)-2,5-diazabicyclo[4.2.0]octan-2-yl]-2-(4-methoxyphenyl)-7-oxo-2H,4H,7H-[1,2,3]triazolo[4,5-b]pyridin-4-yl}-N-[3-(propan-2-yl)bicyclo[1.1.1]pentan-1-yl]acetamide] | ≤ 0.005 µM
CCc1c(N2CCN(C(=O)c3ncnc(C)c3O)[C@H]3CC[C@@H]32)c(=O)c2nn(C3=CCOC(C)C3)nc2n1CC(=O)NC12CC(C3CC3)(C1)C2 (stereo partly drawn) [I-162, N-{3-cyclopropylbicyclo[1.1.1]pentan-1-yl}-2-{5-ethyl-6-[(1S,6S)-5-(5-hydroxy-6-methylpyrimidine-4-carbonyl)-2,5-diazabicyclo[4.2.0]octan-2-yl]-2-(2-methyl-3,6-dihydro-2H-pyran-4-yl)-7-oxo-2H,4H,7H-[1,2,3]triazolo[4,5-b]pyridin-4-yl}acetamide] | 0.005 to 0.05 µM
CCc1c(N2CCN(C(=O)c3ncnc(C)c3O)[C@H]3CC[C@@H]32)c(=O)c2nn(C3=CCOCC3)nc2n1CC(=O)NC1CC2(CCC2)C1 [I-185, 2-[2-(3,6-dihydro-2H-pyran-4-yl)-5-ethyl-6-[(1S,6S)-5-(5-hydroxy-6-methylpyrimidine-4-carbonyl)-2,5-diazabicyclo[4.2.0]octan-2-yl]-7-oxo-2H,4H,7H-[1,2,3]triazolo[4,5-b]pyridin-4-yl]-N-{spiro[3.3]heptan-2-yl}acetamide] | 0.005 to 0.05 µM
